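96-well plates; 48 h exposure; 5 concentrations. Endpoints by linear interpolation between flanking doses. Not reached: highest tested concentration assigned. GI50 is the concentration that inhibits growth by half. TGI marks complete inhibition of growth.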
How the values were obtained:
Experiment in all cases: growth of human tumour cells (NCI), 48 h
DMS 114 small cell lung = test system: DMS 114 small cell lung
HT29 colon = test system: HT29 colon
HOP-18 NSCLC = test system: HOP-18 NSCLC
COLO 205 colon = test system: COLO 205 colon
DLD-1 colon = test system: DLD-1 colon
TK-10 renal = test system: TK-10 renal
HCT-15 colon = test system: HCT-15 colon
NCI-H226 lung = test system: NCI-H226 lung
NCI-H460 lung = test system: NCI-H460 lung
HS 578T breast = test system: HS 578T breast

Structure (SMILES)	TGI (DMS 114 small cell lung)	TGI (HT29 colon)	TGI (HOP-18 NSCLC)	TGI (COLO 205 colon)	TGI (DLD-1 colon)	TGI (TK-10 renal)	TGI (HCT-15 colon)	TGI (NCI-H226 lung)	TGI (NCI-H460 lung)	TGI (HS 578T breast)	GI50 (COLO 205 colon)	GI50 (HCT-15 colon)
Clc1ccc2ns[s+]c2c1	> 100 µM	> 100 µM	> 100 µM	> 44.9 µM	> 100 µM	> 61.1 µM	> 100 µM	> 100 µM	> 100 µM	> 100 µM		
Clc1ccc2c(c1)[nH]c1c2nc2sccn21	> 100 µM	> 100 µM	> 100 µM	> 100 µM	> 100 µM	> 100 µM	> 100 µM	> 100 µM	> 100 µM			
COc1cc(/C=C/c2ccc(OC)c(OC)c2OC)cc(OC)c1OC	60.9 µM	> 63.9 µM	44.9 µM	33.3 µM	> 100 µM	> 82.9 µM	> 57.2 µM	39.7 µM	56.2 µM			
ClCc1ccc(C2OCCO2)cc1	> 42.9 µM	32.6 µM	> 92.2 µM	37.8 µM	34.3 µM	> 75.3 µM	34.7 µM	40.1 µM	39.4 µM			
C/C(=N\NC(=S)N1CCN(c2ccccn2)CC1)c1nccs1	0.649 µM	33.7 µM	> 90.8 µM	15.3 µM	34.4 µM	20 µM	21.3 µM	6.66 µM	2.3 µM	38.3 µM	0.0361 µM	0.0472 µM
Cc1c(Cl)cccc1NC(=O)/C(Cl)=C(\Cl)C(=O)O	36.5 µM	38 µM	31.7 µM	21.6 µM	40.6 µM	35.2 µM	30 µM	51.3 µM	> 100 µM			
S=P(N1CCCC1)(N1CC1)N1CC1	> 100 µM	> 100 µM	> 100 µM	> 100 µM	> 100 µM	> 100 µM	> 100 µM	> 100 µM	> 100 µM			
COC(=O)c1ccc(C(=O)OC)c2nc3cc(C)ccc3nc12	> 100 µM	> 100 µM	> 100 µM	> 100 µM	> 100 µM	> 100 µM	> 100 µM	> 100 µM	> 100 µM			
Clc1ccc(-c2c(C3=NCCN3)nnn2-c2ccccc2)cc1	> 100 µM	> 100 µM	> 100 µM	> 100 µM	> 100 µM	> 100 µM	> 100 µM	> 100 µM	> 100 µM			
Nc1cc2[nH]cnc2c(=O)[nH]1	> 300 µM	> 300 µM	> 300 µM	228 µM	> 300 µM	> 300 µM	> 300 µM	> 212 µM	> 300 µM	> 300 µM		
CCCCCCCCCCCCCC(=O)NCC(OCC)OCC	> 100 µM	> 100 µM	> 100 µM	> 100 µM	> 100 µM	> 100 µM	> 100 µM	> 100 µM	> 100 µM			
CC1(O)CCC2(C)C(=O)C1(C)CCC21OCCO1 (stereo not drawn)	> 100 µM	> 100 µM	> 100 µM	> 100 µM	> 100 µM	> 100 µM	> 100 µM	> 100 µM	> 100 µM			
